These are literature values, as cited in US20210236427A1, “Development of Lipid Matrix Granules with Incorporation of Polysaccharides for Effective Delivery of an Antimicrobial Essential Oil” (University of Manitoba, priority 2018, published 2021).

In this data set the test system is Brachyspira hyodysenteriae. Conditions: in vitro; Vande Maele et al., 2016.

With `CCCCCCCCCCCC(=O)O` [lauric acid], the “minimum inhibitory concentration (MIC)” value was “less than 1.5 mM”.
